Assay [1] addresses Stromelysin-1 (Homo sapiens) (UniProt P08254). The assay is described as follows: Inhibition of MMP3.
The target in the next assay is T1, Caspase-1 (Homo sapiens) (UniProt P29466).
T1 sequence (whole entry): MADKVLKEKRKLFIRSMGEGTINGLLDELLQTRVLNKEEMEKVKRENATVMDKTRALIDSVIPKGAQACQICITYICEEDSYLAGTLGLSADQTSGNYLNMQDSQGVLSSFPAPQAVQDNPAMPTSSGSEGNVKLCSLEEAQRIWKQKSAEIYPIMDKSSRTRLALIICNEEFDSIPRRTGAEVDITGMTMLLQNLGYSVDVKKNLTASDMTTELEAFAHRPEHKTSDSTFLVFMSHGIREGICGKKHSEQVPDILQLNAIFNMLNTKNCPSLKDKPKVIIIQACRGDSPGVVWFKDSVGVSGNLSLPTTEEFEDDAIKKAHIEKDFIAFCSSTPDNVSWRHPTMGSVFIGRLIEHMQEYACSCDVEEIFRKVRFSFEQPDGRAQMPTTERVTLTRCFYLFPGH
Nature of the assay: Inhibition of caspase 1.

The structures appear in SMILES notation. Converted amounts (≈) assume the structure as drawn.

Sequence of Stromelysin-1 (Homo sapiens) (P08254 100-477 limits assumed): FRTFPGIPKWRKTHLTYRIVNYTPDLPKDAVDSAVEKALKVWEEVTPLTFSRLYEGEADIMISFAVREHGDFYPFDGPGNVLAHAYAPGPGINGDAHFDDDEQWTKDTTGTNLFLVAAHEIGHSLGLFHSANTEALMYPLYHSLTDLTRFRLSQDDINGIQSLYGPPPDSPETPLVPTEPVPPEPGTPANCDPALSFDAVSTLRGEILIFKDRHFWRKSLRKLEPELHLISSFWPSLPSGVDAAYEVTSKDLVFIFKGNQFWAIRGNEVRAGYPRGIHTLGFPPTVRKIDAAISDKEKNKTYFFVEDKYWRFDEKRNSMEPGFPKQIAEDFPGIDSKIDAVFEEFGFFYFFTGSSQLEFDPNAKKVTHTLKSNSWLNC

Regarding `C=C(CCC=C(C)C)C1=C[C@@H](O)[C@](C)(O)[C@@H](O)C1=O`, the MIC50 in assay [1] came out at 0.3 µM (≈ 0.0799 µg/mL); on Caspase-1 (Homo sapiens), 30 µM (≈ 7.99 µg/mL).
For `CC(C)=CCC/C(C)=C1\C[C@@H](O)[C@](C)(O)[C@@H](O)C1=O` the same measures were 0.3 µM (≈ 0.0805 µg/mL) and 30 µM (≈ 8.05 µg/mL).
Consider `C=C(CCC=C(C)C)[C@H]1C[C@@H](O)[C@](C)(O)[C@@H](O)C1=O`, for which the values for the MIC50 (in assay [1]; on Caspase-1 (Homo sapiens)) were 0.3 µM (≈ 0.0805 µg/mL) and 30 µM (≈ 8.05 µg/mL), respectively.

The record behind these values is ChEMBL document CHEMBL1148206, “Novel sesquiterpenoid matrix metalloproteinase-3 inhibitors from an acid mine waste extremophile” (J Nat Prod, 2004).
